Eleven compounds from patent US12209087B2, “AKT1 modulators” (Alterome Therapeutics, Inc., priority 2022, dated 2025) can be followed below.

Molecules are shown by their SMILES. A value given as a limit tells only on which side of the number the result lay.

The target in this assay is T1, full length AKT E17K (Homo sapiens, UniProt P31749, E17K).
T1 construct: host or cells: HEK-293 (ATCC CRL-1573)
T1 sequence (P31749 whole entry E17K): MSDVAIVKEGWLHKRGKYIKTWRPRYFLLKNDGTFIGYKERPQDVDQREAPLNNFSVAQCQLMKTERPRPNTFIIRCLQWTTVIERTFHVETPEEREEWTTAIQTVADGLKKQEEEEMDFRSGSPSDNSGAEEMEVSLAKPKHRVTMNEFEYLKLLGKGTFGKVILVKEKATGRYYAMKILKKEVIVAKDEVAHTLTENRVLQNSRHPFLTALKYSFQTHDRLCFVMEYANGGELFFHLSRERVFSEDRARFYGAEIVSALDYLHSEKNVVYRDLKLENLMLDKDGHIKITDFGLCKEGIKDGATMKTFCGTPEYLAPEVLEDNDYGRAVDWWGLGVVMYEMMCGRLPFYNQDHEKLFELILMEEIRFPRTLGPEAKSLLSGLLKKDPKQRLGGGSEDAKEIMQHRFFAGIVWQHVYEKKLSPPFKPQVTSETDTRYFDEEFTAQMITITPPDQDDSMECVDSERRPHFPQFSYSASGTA
Description: NanoBRET Target Engagement (TE) Assay. It is filed as cell-based. As to conditions: competitive displacement of tracer in cells, read-out: AKT1 E17K IC50. The method in brief:
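Compound and tracer incubated 2 h before luminescence at donor 450 nm and acceptor 600 nm, with extracellular signal inhibited. EC50 by sigmoidal variable-slope regression.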
Take `N#Cc1nccc(NC2CCN(Cc3ccc(-n4c(-c5cccnc5N)nc5ccc(N6CCOC6=O)nc54)cc3)CC2)n1` [Example 403, 4-((1-(4-(2-(2-Aminopyridin-3-yl)-5-(2-oxooxazolidin-3-yl)-3H-imidazo[4,5-b]pyridin-3-yl)benzyl)piperidin-4-yl)amino)pyrimidine-2-carbonitrile]: the IC50 (as a rule, the concentration that inhibits the measured activity by half) is less than 15 nM.
For `N#Cc1nccc(NC2CCN(Cc3ccc(-n4c(-c5cccnc5N)nc5ccc(-c6ccc(F)nc6)nc54)cc3)CC2)n1` [Example 404, 4-((1-(4-(2-(2-Aminopyridin-3-yl)-5-(6-fluoropyridin-3-yl)-3H-imidazo[4,5-b]pyridin-3-yl)benzyl)piperidin-4-yl)amino)pyrimidine-2-carbonitrile], the half-maximal inhibitory concentration (IC50) is less than 15 nM.
In the case of `N#Cc1nccc(NC2CCN(Cc3ccc(-n4c(-c5cccnc5N)nc5ccc(Cl)nc54)cc3)CC2)n1` [Example 405, 4-((1-(4-(2-(2-Aminopyridin-3-yl)-5-chloro-3H-imidazo[4,5-b]pyridin-3-yl)benzyl)piperidin-4-yl)amino)pyrimidine-2-carbonitrile], the IC50 was less than 15 nM.
On to `N#Cc1ccc2nc(-c3cccnc3N)n(-c3ccc(CN4CCC(Nc5ccnc(C#N)n5)CC4)cc3)c2n1` [Example 406, 2-(2-Aminopyridin-3-yl)-3-(4-((4-((2-cyanopyrimidin-4-yl)amino)piperidin-1-yl)methyl)phenyl)-3H-imidazo[4,5-b]pyridine-5-carbonitrile], for which the IC50 was less than 15 nM.
`N#Cc1nccc(N2CCN(Cc3ccc(-n4c(-c5cccnc5N)nc5ccc(-c6ncccc6C#N)nc54)cc3)CC2)n1` [Example 407, 4-(4-(4-(2-(2-Aminopyridin-3-yl)-5-(3-cyanopyridin-2-yl)-3H-imidazo[4,5-b]pyridin-3-yl)benzyl)piperazin-1-yl)pyrimidine-2-carbonitrile]: the IC50 was less than 15 nM.
Next, `N#Cc1nccc(NC2CCN(Cc3ccc(-n4c(-c5cccnc5N)nc5ccc(-c6ncccc6C#N)nc54)cc3)CC2)n1` [Example 408, 4-((1-(4-(2-(2-Aminopyridin-3-yl)-5-(3-cyanopyridin-2-yl)-3H-imidazo[4,5-b]pyridin-3-yl)benzyl)piperidin-4-yl)amino)pyrimidine-2-carbonitrile]: less than 15 nM.
Regarding `N#Cc1nccc(NC2CCN(Cc3ccc(-n4c(-c5cccnc5N)nc5ccc(-c6cccnc6C#N)nc54)cc3)CC2)n1` [Example 409, 4-((1-(4-(2-(2-Aminopyridin-3-yl)-5-(2-cyanopyridin-3-yl)-3H-imidazo[4,5-b]pyridin-3-yl)benzyl)piperidin-4-yl)amino)pyrimidine-2-carbonitrile], the IC50 was less than 15 nM.
Next, `N#Cc1nccc(NC2CCN(Cc3ccc(-n4c(-c5cccnc5N)nc5ccc(C(F)(F)F)nc54)cc3)CC2)n1` [Example 410, 4-((1-(4-(2-(2-Aminopyridin-3-yl)-5-(trifluoromethyl)-3H-imidazo[4,5-b]pyridin-3-yl)benzyl)piperidin-4-yl)amino)pyrimidine-2-carbonitrile]: less than 15 nM.
Next, `N#Cc1cnc2c(c1)nc(-c1cccnc1N)n2-c1ccc(CN2CCC(Nc3ccnc(C#N)n3)CC2)cc1` [Example 411, 2-(2-Aminopyridin-3-yl)-3-(4-((4-((2-cyanopyrimidin-4-yl)amino)piperidin-1-yl)methyl)phenyl)-3H-imidazo[4,5-b]pyridine-6-carbonitrile]: 15 to 60 nM; `Cc1cc2nc(-c3cccnc3N)n(-c3ccc(CN4CCC(Nc5ccnc(C#N)n5)CC4)cc3)c2nc1C` [Example 412, 4-((1-(4-(2-(2-Aminopyridin-3-yl)-5,6-dimethyl-3H-imidazo[4,5-b]pyridin-3-yl)benzyl)piperidin-4-yl)amino)pyrimidine-2-carbonitrile]: less than 15 nM.
Next, `N#Cc1nccc(NC2CCN(Cc3ccc(-n4c(-c5cccnc5N)nc5nccnc54)cc3)CC2)n1` [Example 413, 4-((1-(4-(2-(2-aminopyridin-3-yl)-1H-imidazo[4,5-b]pyrazin-1-yl)benzyl)piperidin-4-yl)amino)pyrimidine-2-carbonitrile]: 15 to 60 nM.
